Laboratory results as given in patent publication US20240398853A1, “MULTIVALENT POLYCATION INHIBITION OF POLYANIONS IN BLOOD” (The Regents of the University of Michigan, priority 2021, published 2024).

Key:
[1] = test system: human plasma clotting; assay: Plasma clot formation by turbidity analysis in a TF-triggered system (no polyP); format: biochemical
Protocol: Microplate turbidimetric clotting assays were performed with platelet-poor plasma (PPP) obtained from three donors. MPI solutions were prepared in 20 mM HEPES (pH 7.4, 150 mM NaCl) buffer. Clotting was initiated in 90 μL of 30% diluted PPP spiked with MPI (dilution 1:10) by adding 5 μL of recombinant tissue factor (TF; Innovin (1:10,000; […])) and 5 μL of CaCl2) (20 mM). Clotting was evaluated by monitoring changes in turbidity (A405 nm) every 30 seconds with the Spectramax microplate reader for 2 hours at 37° C. Clotting parameters including lag time were calculated and considered as the time point when an exponential increase in absorbance was first observed.

[2] = test system: Unfractionated heparin (UFH); assay: Heparin reversal activity by aPTT in heparinized plasma; format: biochemical, human; conditions: UFH 4 U/mL, dose range 0-250 μg/mL
Protocol: (§1) Stock MPI, UHRA or protamine sulfate solutions were prepared in 20 mM HEPES buffer (pH 7.4 and 150 mM NaCl). Unfractionated heparin (Fresenius Kabi, Canada) or tinzaparin (LEO Pharma, Canada), 4 U/mL and 1 U/mL final concentrations, respectively, were incubated with sodium citrate anticoagulated pooled normal plasma (Affinity Biologicals, Canada) to prepare heparinized plasma, and were used to study the neutralization activity by various MPI and UHRA constructs. The neutralization activity of MPI, UHRA and protamine sulfate on the coagulation cascade was examined by mixing 20 μL of MPI or UHRA or protamine solution with 180 μL of heparin derivative incubated plasma ( 1/10 v/v). The final concentration of MPI, UHRA and protamine in plasma ranged from 0.025 mg/mL to 0.25 mg/mL. 200 μL of aPTT reagent (Dade®Actin®FS Activated PTT, Siemens/Dade-Behring) was then added to the neutralization reagent-plasma sample and 100 μL of this resulting mixture was transferred to cuvette-strips and incubated at 37° C. for 3 minutes. The clotting time was measured on a STart® 4 coagulometer (Diagnostica Stago, France) and began when 50 μL of 25 mM CaCl2) was added into each cuvette. Saline added to plasma with and without heparin-derivatives was used as a control for the experiments. The percentage of neutralization was calculated from the difference in the clotting times observed for MPI/UHRA/protamine versus control saline and heparinized plasma. All experiments were performed with pooled plasma of 20 donors in triplicates and the average values (mean±SD) are reported.

[3] = test system: tinzaparin (LMWH); assay: as above; format: biochemical, human; conditions: tinzaparin 1 U/mL
Protocol: as §1

[4] = test system: mice; conditions: mice (Shenoi); cited from earlier work
[5] = Isothermal titration calorimetry, binding to polyP; conditions: for Kd: pH 7.4, 25° C.
Protocol: The interaction of MPI and polyP was carried out at 25° C. using a MicroCal iTC200 calorimeter (MicroCal, Northampton, USA). Samples were prepared by making stock solutions of at least 100× the desired concentration at high volume and filtered using 0.2 µm filters (Millex, Merck Millipore Ltd). The pH of each solution was then measured to ensure that they were between 7.35 and 7.40. Prior to titration, stock solutions were diluted with the same filtered buffer and degassed. Titrations consisted of 25 consecutive injections of 1.5 μL volume and 5 sec duration each, with a 3 min interval between injections with only the first injection between 0.2 μL volume, not used as part of the fit. Heat of dilution was measured by injecting MPI solution into buffer alone and was subtracted from the experimental curves prior to data analysis. The resulting data were fit into a single set of identical sites model using the MicroCal ORIGIN software supplied with the instrument.

[6] = 31P NMR titration of polyP with MPI or CBG; format: binding; conditions: HEPES buffer, 150 mM NaCl, 298 K
Protocol: NMR spectra for MPI and polyP binding interaction studies were acquired on a Bruker 500 MHz instrument (Bruker Biospin, Milton, ON), operating at a ^1H frequency of 499.4 MHz. ^31P NMR spectra were collected at 298 K. The NMR sample was prepared to yield 0.5 mM of polyphosphate in HEPES buffer with 150 mM NaCl and 10% D2O (by volume) for a total sample volume of 600 μL. All polyphosphate concentrations are provided in terms of the concentration of phosphate monomer. For the binding study, polyphosphate was first prepared with a known concentration of internal standard of trimethylphosphate. MPI was titrated in, and the total volume was increased by 1.5 μL of the 600 μL total per addition.
While ITC experiments indicate the behavior of the amine functionalities on the CBGs during the MPI-polyP binding event, the effect of the MPI on the polyP phosphate backbone have previously been unknown. To determine the interaction between the MPI and polyP backbone, and how the interaction effects the electronic environment of the phosphorus nuclei, ^31P NMR titration experiments were performed. […] While it is not possible to quantify the number of bound phosphate units with MPI or CBG, it is possible to visualize the change in electronic environment of the phosphorus nuclei and extrapolate the binding behavior between MPI and polyP.

[7] = free ligand, value marked with a reference superscript; cited from earlier work

Compound	plasma clot time (lag time) compared to buffer control ([1]; MPI and PS 200 μg/mL, UHRA 75 μg/mL)	increase in clot time compared to buffer control ([1]; pooled plasma)	UFH neutralization in heparinized plasma [2]	anticoagulant (overdose) behavior at higher doses [2]	LMWH neutralization [3]	lethal dose [4]	binding affinity to LC polyP (range in words) ([5]; ITC, FIG. 7)	Kd ([5]; P45, HEPES, 10 mM NaCl)	Kd ([5]; P700, HEPES buffer)	binding behaviour towards P45 in 31P NMR titration [6]	log K, H2L + H ⇌ H3L [7]	log K, HL + H ⇌ H2L [7]	log K, L + H ⇌ HL [7]	log K, H3L + H ⇌ H4L [7]
protamine sulfate	performed significantly worse than MPI candidates	~3 fold	exhibits heparin neutralization at lower doses	clear anticoagulant behavior at higher doses	almost no neutralization activity on LMWH	30 mg/kg	–	–	–	–	–	–	–	–
CN(C)CCN(C)CCN(C)C [CBG I, N,NN′,N″,N″-pentamethyldiethylenetriamine]	–	–	–	–	–	–	millimolar range	7 mM	9 mM	weak interaction	2.09 ± 0.02	8.41 ± 0.02	9.22 ± 0.02	–
CN(C)CCN(CCN(C)C)CCN(C)C [Me6-TREN]	–	–	–	–	–	–	–	–	–	–	7.44	8.68	9.50	<1.0
